Read-outs that look alike come from different tables or passages of the source.
How the values were obtained:
recombinant human p38α = recombinant human p38α (Homo sapiens, UniProt Q16539); experiment: Purified and activated recombinant human p38α HTRF assay; type: biochemical; conditions: 1 nM p38α, 50 μM ATP, GST-ATF2 substrate, read-out: p38a IC50
Protocol: Purified and Activated Recombinant Human p38α Assay Kinase Reaction Buffer: […] HTRF Detection Buffer: […] Serial Dilution of Compounds: […] Columns 6 and 12 (HI controls and LO controls respectively) in the drug plate were reserved as controls and contained only DMSO. Kinase Reaction: […] See table below for actual concentrations. In the absence of substrate, the background was measured as LO control. […] Assay Reagent Concentrations: […] HTRF Detection: […] After 60 minutes incubation at room temperature, the assay plate was read in a Discovery Plate Reader. The wells were excited with coherent 320 nm light and the ratio of delayed ([…] post excitation) emissions at […] (native europium fluorescence) and 665 nm (europium fluorescence transferred to allophycocyanin-an index of substrate phosphorylation) was determined (Park et al, 1999). Data Analysis: […] Data (consisting of POC and inhibitor concentration in μM) was fitted to a 4-parameter equation ([…]))), where A is the minimum y (POC) value, B is the maximum y (POC), C is the x (compound concentration) at the point of inflection and D is the slope factor, using a Levenburg-Marquardt non-linear regression algorithm. The inhibition constant (Ki) of the inhibitor was estimated from the IC50 (compound concentration at the point of inflection C) using the Cheng-Prussof equation: […] All results were expressed as the mean±the standard error of the mean. Data acquisition and non-linear regression algorithms were performed using Activity Base v5.2 and XL-fit software v4.1 respectively. All data was archived using Activity Base v5.2 software.

[1] = test system: TNF-α induced IL-8 in 50% human whole blood; experiment: Inhibition of TNF-α induced IL-8 in 50% human whole blood; type: cell-based
Protocol: Inhibition of TNF-α Induced IL-8 in 50% Human Whole Blood
Test compounds were evaluated in vitro for the ability to inhibit the production of secreted IL-8 by whole blood activated with TNF-α. Fresh human whole blood was obtained from healthy, non-medicated volunteers in sodium heparin tubes.
Compound Dilution—Assay Procedure
Test compounds are serially diluted 1:3 in DMSO and then diluted 1:250 into R10 (RPMI 1640, 10% human serum AB, 1× pen/strep/glutamine) to the 4× working concentration to be used in the assay. 100 ul heparinized whole blood is plated into wells of 96 well flat bottom plates. 50 ul of either 4× compound or DMSO control (Final DMSO concentration is 0.1%) are added to the appropriate wells. Plates are incubated for 1 hour at 37 degrees Celsius. 50 ul of 4×TNF-α (4 nM TNF-α, for a final concentration of 1 nM) or control (media alone) is added to the appropriate wells (Total volume=200 ul). Plates are incubated overnight (16-18 hours). 100 ul of supernatant is collected and stored in 96-well round bottom polypropylene plates at −80 degrees Celsius or assayed immediately for IL-8.
Cytokines are measured on antibody (Ab) sandwich ECL based 96-well detection plates. 20 ul of supernatant are added to plate and plate is sealed and shaken at RT for 1 hour. 130 ul of detection Ab cocktail is added and plates are sealed and shaken for 1 hour in the dark at RT. Plates are read on MSD Sector HTS instrument. Data are analyzed and IC50 values generated using Activity Base and X1-fit programs.

[2] = test system: production of IL-1β, IL-6, and TNF-α by PBMC activated with LPS; experiment: Lipopolysaccharide-activated PBMC cytokine production assay; type: cell-based; conditions: Homo sapiens, LPS 100 ng/mL, 18 hours, read-out: IC50 in PBMC cytokine production assay
Protocol: Lipopolysaccharide-Activated Pbmc Cytokine Production Assay
Test compounds were evaluated in vitro for the ability to inhibit the production of IL-1β, IL-6, and TNF-α by PBMC activated with bacterial lipopolysaccharide (LPS). Fresh leukocytes were obtained from a local blood bank, and peripheral blood mononuclear cells (PBMCs) were isolated by density gradient centrifugation on Ficol-Paque Plus (Pharmacia).
Preparation of Test Compound Stock Solutions
All reagents were prepared in RPMI 1640+10% v/v human AB serum+1× Pens/Strep/Glu (assay medium). Test compounds were dissolved in 100% DMSO and serially diluted in 96-well polypropylene round bottom micro titer plates (drug plate). Serial dilutions were then diluted 1:250 into assay medium to a 4× working concentration. Compound serial dilutions were half-log, 10 point titrations with a final starting concentration of 1 μM.
Treatment of Cells with Test Compounds and Activation with Lipopolysaccharide
LPS was prepared to a 4× concentration in assay medium. 100 μl of PBMC (1×10^6 cells/ml) were plated in a 96-well polystyrene flat bottom micro titer tissue culture plate and incubated with 50 μl of 4× compound serial dilution for 1 hour at 37° C., 5% CO2 in a tissue culture incubator. 50 μl 4×LPS or control was added and the plates were incubated at 37° C., 5% CO2 in a tissue culture incubator for 18 hours. The final DMSO concentration was 0.1%. The total volume was 200 μL. The final LPS concentration was 100 ng/mL. After 18 hours culture supernatants were removed and IL-1β, IL-6, and TNF-α presence in the supernatants was quantified using MSD ECL based technology.
20 μL of culture supernatant were added to MSD plates, and incubated for one hour at room temperature. 20 μL of detection antibody diluted in antibody diluent (1 μg/mL), and 110 μL of 2× Read Buffer P was added, and incubated for one hour at RT. Electrochemiluminescence was measured using the SECTOR HTS Imager (MSD, Gaithersburg, Md.).
Compound IC50 values were calculated as follows: The proportion of cytokine production in the presence of compound compared to the cytokine production in the presence of the DMSO vehicle alone (Hi control) was calculated using the formula: Percent Control (POC)=(compound−average Lo)/(average Hi−average Lo)*100.

[3] = test system: TNF-α production by LPS-activated THP1 cells; experiment: Lipopolysaccharide-activated THP1 cell TNF production assay; type: cell-based; conditions: Homo sapiens, THP-1; THP1 cells, LPS, 3 hours; read-out: IC50 in THP-1 cellular TNF production assay
Protocol: Lipopolysaccharide-Activated THP1 Cell TNF Production Assay
THP1 cells were resuspended in fresh THP1 media (RPMI 1640, 10% heat-inactivated FBS, 1×PGS, 1×NEAA, plus 30 μM βME) at a concentration of 1.5×10^6 cells per mL. One hundred microliters of cells per well were plated in a polystyrene 96-well tissue culture plate. 1.5 micrograms per mL of bacterial LPS was prepared in THP1 media and transferred to the first 11 columns of a 96-well polypropylene plate. Column 12 contained only THP1 media for the LO control. Compounds were dissolved in 100% DMSO and serially diluted 3 fold in a polypropylene 96-well microtiter plate (drug plate). Columns 6 and 12 were reserved as controls (HI controls and LO controls respectively) and contained only DMSO. 10 μL of LPS followed by one microliter of inhibitor compound from the drug plate was transferred to the cell plate. The treated cells were induced to synthesize and secrete TNF-α in a 37° C. humidified incubator with 5% CO2 for 3 hours. Fifty microliters of conditioned media was transferred to a 96-well MULTI-ARRAY™ 96-well small spot plate—custom coated with MAB610 containing 100 μL of 2× Read Buffer P supplemented with 0.34 nM AF210NA polyclonal Ab labeled with ruthenium (MSD—Sulfo-TAG™—NHS ester). After an overnight incubation at room temperature with shaking, the reaction was read on the Sector Imager™ 6000. […] The amount of secreted TNF-α in the presence of test compounds compared with that in the presence of DMSO vehicle alone (HI control) was calculated using the formula: % control (POC)=(cpd−average LO)/(average HI−averageLO)*100. Data (consisting of POC and inhibitor concentration in μM) was fitted to a 4-parameter equation (y=A+((B−A)/(1+((x/C)^D))), where A is the minimum y (POC) value, B is the maximum y (POC), C is the x (cpd concentration) at the point of inflection and D is the slope factor) using a Levenburg-Marquardt non-linear regression algorithm.

[4] = TNF-α (1 nM) induced IL-8, 50% human whole blood, 16-18 h, read-out: WB TNF/IL8 IC50

Sequence of recombinant human p38α (Q16539 whole entry): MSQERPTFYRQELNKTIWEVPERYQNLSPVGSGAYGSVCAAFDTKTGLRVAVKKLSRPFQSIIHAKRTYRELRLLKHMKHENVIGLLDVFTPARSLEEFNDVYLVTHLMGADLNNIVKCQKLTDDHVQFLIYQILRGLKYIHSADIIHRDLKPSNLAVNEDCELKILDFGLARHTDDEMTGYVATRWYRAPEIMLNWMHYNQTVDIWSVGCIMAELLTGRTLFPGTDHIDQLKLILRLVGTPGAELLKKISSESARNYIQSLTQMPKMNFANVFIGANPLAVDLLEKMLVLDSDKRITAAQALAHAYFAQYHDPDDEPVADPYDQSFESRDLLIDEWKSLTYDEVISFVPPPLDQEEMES

Structure (SMILES)	IC50 (recombinant human p38α) [nM]	IC50 [1, 4] [nM]	IC50 [3] [nM]	IC50 [2] [nM]	IC50 ([1]; read-out: WB TNF/IL8 IC50, TNF-α (1 nM) induced IL-8, 50% human whole blood, 16-18 h) [nM]
CNC(=O)c1ccc(C)c(-c2cc3cnnc(-c4ccc(F)cc4F)c3n(C)c2=O)c1 [Example 31, 3-(8-(2,4-difluorophenyl)-1-methyl-2-oxo-1,2-dihydropyrido[2,3-d]pyridazin-3-yl)-N,4-dimethylbenzamide]	2.7	30	–	–	–
Cc1ccc(C(=O)NC2CC2)cc1-c1cc2cnnc(-c3ccc(S(C)(=O)=O)cc3C)c2n(C)c1=O [Example 26, N-cyclopropyl-4-methyl-3-(1-methyl-8-(2-methyl-4-(methylsulfonyl)phenyl)-2-oxo-1,2-dihydropyrido[2,3-d]pyridazin-3-yl)benzamide]	3.3	10	–	–	–
Cc1cnc(C(=O)NC2CC2)cc1-c1cc2cnnc(-c3ccc(F)cc3F)c2n(C)c1=O [Example 30, N-cyclopropyl-4-(8-(2,4-difluorophenyl)-1-methyl-2-oxo-1,2-dihydropyrido[2,3-d]pyridazin-3-yl)-5-methyl-2-pyridinecarboxamide]	14	38	–	–	–
Cn1c(=O)c(-c2cc(C(=O)O)ccc2Cl)cc2cnnc(-c3ccc(F)cc3F)c21 [Example 4, 4-chloro-3-(8-(2,4-difluorophenyl)-1-methyl-2-oxo-1,2-dihydropyrido[3,2-d]pyridazin-3-yl)benzoic acid]	> 1000	–	–	–	> 2500
Cc1ccc(C(=O)NC2(C)CC2)cc1-c1cc2cnnc(-c3ccc(F)cc3Cl)c2n(C)c1=O [Example 20, 3-(8-(2-chloro-4-fluorophenyl)-1-methyl-2-oxo-1,2-dihydropyrido[2,3-d]pyridazin-3-yl)-4-methyl-N-(1-methylcyclopropyl)benzamide]	4.1	15.6	≤ 1000	≤ 1000	–
Cc1ccc(C(=O)Nc2ccon2)cc1-c1cc2cnnc(-c3ccc(F)cc3F)c2n(C)c1=O [Example 33, 3-(8-(2,4-difluorophenyl)-1-methyl-2-oxo-1,2-dihydropyrido[2,3-d]pyridazin-3-yl)-N-3-isoxazolyl-4-methylbenzamide]	–	1.7	–	–	–
Cc1ccc(C(=O)NC2(C)CC2)cc1-c1cc2cnnc(-c3ccc(F)cc3F)c2n(C)c1=O [Example 29, 3-(8-(2,4-difluorophenyl)-1-methyl-2-oxo-1,2-dihydropyrido[2,3-d]pyridazin-3-yl)-4-methyl-N-(1-methylcyclopropyl)benzamide]	3	–	≤ 1000	≤ 1000	–

Now from value to molecule, other results behind:

IC50 (recombinant human p38α) [nM]	IC50 [1, 4] [nM]	IC50 [3] [nM]	Structure (SMILES)	IC50 [2] [nM]	IC50 ([1]; read-out: WB TNF/IL8 IC50, TNF-α (1 nM) induced IL-8, 50% human whole blood, 16-18 h) [nM]
1.7	2.2	≤ 1000	Cc1ccc(C(=O)NC2CC2)cc1-c1cc2cnnc(-c3cc(F)ccc3Cl)c2n(C)c1=O [Example 18, 3-(8-(2-chloro-5-fluorophenyl)-1-methyl-2-oxo-1,2-dihydropyrido[2,3-d]pyridazin-3-yl)-N-cyclopropyl-4-methylbenzamide]	≤ 1000	–
2.5	3.9	–	Cc1cc(S(C)(=O)=O)ccc1-c1nncc2cc(-c3cc(C(=O)NC4CC4)cc(F)c3C)c(=O)n(C)c12 [Example 27, N-cyclopropyl-3-fluoro-4-methyl-5-(1-methyl-8-(2-methyl-4-(methylsulfonyl)phenyl)-2-oxo-1,2-dihydropyrido[2,3-d]pyridazin-3-yl)benzamide]	–	–
1	1	–	CCn1c(=O)c(-c2cc(C(=O)NC3CC3)ccc2C)cc2cnnc(-c3ccccc3Cl)c21 [Example 28, 3-(8-(2-chlorophenyl)-1-ethyl-2-oxo-1,2-dihydropyrido[2,3-d]pyridazin-3-yl)-N-cyclopropyl-4-methylbenzamide]	–	–
1	9.3	≤ 1000	Cc1ccc(C(=O)Nc2nccs2)cc1-c1cc2cnnc(-c3ccc(F)cc3Cl)c2n(C)c1=O [Example 24, 3-(8-(2-chloro-4-fluorophenyl)-1-methyl-2-oxo-1,2-dihydropyrido[2,3-d]pyridazin-3-yl)-4-methyl-N-1,3-thiazol-2-ylbenzamide]	≤ 1000	–
1.2	7.3	–	Cc1ccc(C(=O)Nc2nccs2)cc1-c1cc2cnnc(-c3ccc(F)cc3F)c2n(C)c1=O [Example 32, 3-(8-(2,4-difluorophenyl)-1-methyl-2-oxo-1,2-dihydropyrido[2,3-d]pyridazin-3-yl)-4-methyl-N-1,3-thiazol-2-ylbenzamide]	–	–
2.4	–	≤ 1000	Cc1c(F)cc(C(=O)NC2CC2)cc1-c1cc2cnnc(-c3ccccc3C(F)(F)F)c2n(C)c1=O [Example 11, N-cyclopropyl-3-fluoro-4-methyl-5-(1-methyl-2-oxo-8-(2-(trifluoromethyl)phenyl)-1,2-dihydropyrido[3,2-d]pyridazin-3-yl)benzamide]	≤ 1000	–

Reference: US8455495B2, “Pyridazino-pyridinone compounds and methods of use” (Amgen Inc., priority 2008, dated 2013)
